Paper PMC7156724, “Potent BRD4 inhibitor suppresses cancer cell-macrophage interaction” (Nature Communications, 2020)
Several values for one entry are separate records, joined by “and”; a condition that tells them apart may be missing. Equal entries are not always repeated.

Assays:
[1] = Metabolic stability assay, mouse liver microsomes; details: for Remaining in mouse liver microsomes (Sup Fig.6a): in % (unit assumed)
Experimental: (§1) 7. Metabolic stability assay. The metabolic profile of NHWD-870 was determined using mouse, rat, dog, monkey, and human liver microsomes using the protocols […]
(§2) No. Compound ID Exat Mass Stock Conc.
(§3) 1) 100 mM potassium phosphate buffer, PH7.4; 2) 10mM MgCI2
(§4) 1) Intermediate solution: Dilute 5 μL of compound or control from stock solution (10 mM) with 45 uL DMSO,then mixed with 450 μL 1:1 Methanol/Water (Conc.: 10 0 […]
(§5) 2) Working solution: Dilute 50 μL from intermediate solution with 450 μL 100 mM potassium phosphate buffer (Conc.: 10 μM, 4.5%MeOH)
(§6) (3) NADPH regenerating system (final Isocitric dehydrogenase conc.= 1 unit/mL at […]
(§7) 1) β-Nicotinamide adenine dinucleotide phosphate, Vendor: sigma Cat. No. N0505
(§8) 2) Isocitric acid, Vendor: Sigma Cat. No. I1252
(§9) 3) Isocitric dehydrogenase, Vendor: sigma Cat. No. I2002
(§10) (4) Liver microsome solution preparation (final concentration o f 0.5 mg protein/mL) […]
(§11) Cold ACN including 100 ng/mL Tolbutamide and 100 ng/mL Labetalol as internal […]
(§12) 1) Add 10 μL compound or control working solution/well to all plates (T0, T5, T10, T20, T30, T60, NCF60) except matrix blank.
(§13) 2) Dispense 680 μL/well microsome solution to 96-well plate as reserv oir according to […]
(§14) plate map. Then add 80 μL/well to every plate by Apricot, incubate the mixture of microsome solution and compound at 37℃ for about 10 min.
(§15) 3) Add 10 μL 100 mM potassium phosphate buffer/well to NCF60, incubate at 37℃, […]
(§16) 4) After pre-warming, dispense 90 μL/well NADPH regenerating system to 96-well plate as reservoir according to the plate map. Then add 10 μL/well to every plate by Apricot to start reaction.
(§17) 5) Incubate at 37℃, start timer 2.
(§18) 6) Add 300 (μL/well) stop solution (cold in 4℃, including 100 ng/mL Tolbutamide and 100 ng/mL Labetalol) to terminate the reaction.
(§19) 7) The sampling plates are shaked for approx 10 min.
(§20) 8) Samples are centrifuged at 4000 rpm for 20 min under 4℃.
(§21) 9) While centrifuging, load 8×new 96-well plate with 300 μL HPLC water, then transfer 100 μL supernatant, mixed for LC/MS/MS.
(§22) Use equation of first order kinetics to calculate t1/2 and Clin t(mic): […]
(§23) Equation of first order kinetics: […]

[2] = Metabolic stability assay, monkey liver microsomes; details: for Remaining in Monkey liver microsomes (Sup Fig.6d): in % (unit assumed)
Experimental: as §1, §2, §3, §4, §5, §6, §7, §8, §9, §10, §11, §12, §13, §14, §15, §16, §17, §18, §19, §20, §21, §22, §23

[3] = tested on: MDA-MB231 cells; assay: MTT cell growth assay, MDA-MB231; assay type: cell-based, human; details: 5 days
Experimental: Fig. 2 NHWD-870 inhibited BRD4 phosphorylation and c-MYC expression, and suppressed cell growth. a Representative western blot analysis of p-BRD4 (s484/488), BRD4, c-MYC, and GAPDH after treatment of MDA-MB231, SUM159, A2780 ES-2, and H526 cells with JQ-1 or NHWD-870 at the indicated concentrations for 24 h. GAPDH served as the loading control. Selected from three independent experiments. b MTT assays of H526, A2780, ES-2, and MDA-MB231 cells treated with JQ-1 or NHWD-870 at the indicated concentrations for 5 days. Data are presented as mean ± SEM from three independent experiments. c, d Clonogenic assays of H526, A2780, ES-2 and MDA-MB231 cells treated with 250 nM JQ-1 or NHWD-870 for 5 days. Shown are representative images (c) and quantification of colonies (d). […] Shown are representative images (e) and quantification of relative colony sizes (f). Scale bar, 50 μm. Data are presented as mean ± SEM from five independent experiments. p values were calculated using two-tailed, unpaired t tests in this figure. **p < 0.01; ***p < 0.001. Source data are provided as a Source Data file.
37℃, 5% CO2. […]

[4] = Concentration in lungs and tumors of H526 xenograft model; assay type: in vivo, mouse; details: Group 2, 3 mg/kg QD, individual animals; for Analyte Concentration in Lung Homogenate: LLOQ 1 ng/mL
Description: Supplementary Figure 7. Pharmacokinetic profile of NHWD-870 using mouse and rat models. […]
98615821 on day 21. These mice were administrated the indicated drug daily for 21 days. Data are represented as mean ± SEM of 3 independent experiments. Source data are provided as a Source Data file. […]
9. In vivo pharmacokinetics study. Mouse and SD rat models were used to evaluate pharmacokinetic property of NHWD-870. NHWD-870 was administrated […]
Concentration of drugs in plasma, lung and tumor tissues were measured for the indicated time. […]

[5] = mouse, liver microsomes, pH 7.4
[6] = monkey, liver microsomes, pH 7.4

With `Cc1nnn(C)c1-c1cnc2c3c4cnn(C)c4ccc3n([C@H](c3ccccc3)C3CCOCC3)c2c1` [NHWD-870] the “Remaining (T=60min)” value ([1]; mouse liver microsomes) was 36.2%, the “Remaining (*NCF=60min)” value ([1]; mouse liver microsomes, no cofactor) was 70.1% and the CLint scaled at 1 µM [1, 5] was 139 mL/min/kg. The half-life at 1 µM [1, 5] was 39.4 min, the microsomal CLint at 1 µM ([1]; mouse, microsomes, pH 7.4) was 35.2 µL/min/mg and the “Remaining in mouse liver microsomes (Sup Fig.6a)” value (shortened to “Remaining … (Sup Fig.6a)”) ([1]; time 0) was 100. The “Remaining … (Sup Fig.6a)” value ([1]; time 5) was 95.208, the “Remaining … (Sup Fig.6a)” value ([1]; time 10) was 82.243 and the “Remaining … (Sup Fig.6a)” value ([1]; time 20) was 62.59. For the same molecule, the “Remaining … (Sup Fig.6a)” value ([1]; time 30) was 51.73, the “Remaining … (Sup Fig.6a)” value ([1]; time 60) was 36.198 and the “Remaining (T=60min)” value ([2]; monkey liver microsomes) was 25.7%. The “Remaining (*NCF=60min)” value ([2]; monkey liver microsomes, no cofactor) was 112.0%, the CLint scaled at 1 µM [2, 6] was 62.4 mL/min/kg and the half-life at 1 µM [2, 6] was 30 min. For the same molecule, the microsomal CLint at 1 µM ([2]; monkey, microsomes, pH 7.4) was 46.2 µL/min/mg, the “Remaining in Monkey liver microsomes (Sup Fig.6d)” value (shortened to “Remaining … (Sup Fig.6d)”) ([2]; time 0) was 100 and the “Remaining … (Sup Fig.6d)” value ([2]; time 5) was 73.787. For the same molecule, the “Remaining … (Sup Fig.6d)” value ([2]; time 10) was 48.901, the “Remaining … (Sup Fig.6d)” value ([2]; time 20) was 36.72 and the “Remaining … (Sup Fig.6d)” value ([2]; time 30) was 26.708. The “Remaining … (Sup Fig.6d)” value ([2]; time 60) was 12.364, the “MTT assay, relative cell number” value ([3]; MDA-MB231, 0.1 nM) was 0.965 and 0.95 and 0.937 and the “MTT assay, relative cell number” value ([3]; MDA-MB231, 1 nM) was 0.701 and 0.703 and 0.725. The “MTT assay, relative cell number” value ([3]; MDA-MB231, 10 nM) was 0.368 and 0.306 and 0.338, the “MTT assay, relative cell number” value ([3]; MDA-MB231, 100 nM) was 0.083 and 0.065 and 0.074 and the “MTT assay, relative cell number” value ([3]; MDA-MB231, 500 nM) was 0. For the same molecule, the “MTT assay, relative cell number” value ([3]; MDA-MB231, 1000 nM) was 0, the “MTT assay, relative cell number” value ([3]; MDA-MB231, 5000 nM) was 0 and the “MTT assay, relative cell number” value ([3]; MDA-MB231, 10000 nM) was 0. For the same molecule, the “Analyte Concentration in Tumor Homogenate” value ([4]; 8h) was 51.4 ng/mL and 12.9 ng/mL and 16.6 ng/mL, the “Analyte Concentration in Lung Homogenate” value ([4]; 8h) was 13.8 ng/mL and 4.51 ng/mL and 8.51 ng/mL and the “Analyte Concentration in Lung” value ([4]; 8h, LLOQ 10 ng/g) was 138 ng/g and 45.1 ng/g and 85.1 ng/g. For the same molecule, the “Analyte Concentration in Tumor” value ([4]; 8h, dilution factor 10) was 514 ng/g and 129 ng/g and 166 ng/g, the “Analyte Concentration in Tumor Homogenate” value ([4]; 24h) was 3.37 ng/mL and 2.3 ng/mL and 5.48 ng/mL and the “Analyte Concentration in Lung Homogenate” value ([4]; 24h) was “BQL”.
